Drawing on patent US20240254115A1 (ACONDICIONAMIENTO TARRASENSE, priority 2021, published 2024), this text covers Ki for 29 molecules.

Molecules are shown by their SMILES.

One experiment deals with T1, human σ1 receptor (Homo sapiens, UniProt Q99720).
T1 construct: expressed in transfected cells; host or cells: HEK-293
Kind of experiment: Human σ1 receptor radioligand assay. Conditions: transfected HEK-293 membranes, 5 nM [3H](+)-pentazocine, 37° C. 120 minutes; + may also stand for 1-50% inhibition at 1 or 10 μM; read-out: Binding σ-1 Ki. In short, it runs like this:
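Ki was derived from five test concentrations, or % inhibition was measured at a single 1 or 10 μM dose, against 5 nM [3H](+)-pentazocine. Incubation was 120 min at 37° C in 50 mM Tris-HCl pH 8 with 7 μg HEK-293 membranes, and 10 μM haloperidol set non-specific binding. Bound radioactivity was counted after filtration.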

For the next experiment, the target named is T2, human σ2/TMEM97 receptor (Homo sapiens, UniProt Q5BJF2).
T2 construct: expressed in transfected cells; host or cells: HEK-293
The experiment in a line: Binding assay to human σ2/TMEM97 receptor. Particulars: transfected HEK-293 membranes, 10 nM [3H]-DTG, 25° C. 120 minutes; + may also stand for 1-50% inhibition at 1 or 10 μM; read-out: Binding σ-2 Ki. In short, it runs like this: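 Membranes from transfected HEK-293 cells (15 µg) were incubated with 10 nM [3H]-DTG in 50 mM Tris-HCl pH 8.0 for 120 min at 25 °C, with 10 µM haloperidol defining non-specific binding. Filtration and scintillation counting followed. Compounds tested as % inhibition at 1 or 10 µM, or at five concentrations for Ki.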

T2 sequence (Q5BJF2 whole entry): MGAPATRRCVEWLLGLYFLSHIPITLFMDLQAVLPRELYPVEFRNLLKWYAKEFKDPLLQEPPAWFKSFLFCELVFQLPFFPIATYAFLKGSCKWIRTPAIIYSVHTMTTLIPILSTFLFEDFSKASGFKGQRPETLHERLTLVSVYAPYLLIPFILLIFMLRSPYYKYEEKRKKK
T1 sequence (Q99720 whole entry): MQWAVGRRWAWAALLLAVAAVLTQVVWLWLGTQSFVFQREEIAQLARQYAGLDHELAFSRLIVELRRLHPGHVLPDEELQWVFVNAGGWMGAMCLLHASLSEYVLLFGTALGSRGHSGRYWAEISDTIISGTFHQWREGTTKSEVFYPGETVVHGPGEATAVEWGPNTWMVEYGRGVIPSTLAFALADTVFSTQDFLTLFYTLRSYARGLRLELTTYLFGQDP

As a reminder, the Ki is a dissociation constant, usually derived from enzyme kinetics or from competition with a known ligand. On to `CC(C)(C)CN1CCCC2(CCN(S(=O)(=O)c3ccc(N4CCC(F)(F)CC4)nc3)CC2)C1` [Example 85, 9-((6-(4,4-Difluoropiperidin-1-yl)pyridin-3-yl)sulfonyl)-2-neopentyl-2,9-diazaspiro[5.5]undecane], for which the values for the Ki on human σ1 receptor and at human σ2/TMEM97 receptor were under 100 nM and 500 to 1000 nM, respectively.

Turning to `CN(Cc1ccccc1)C1CCN(S(=O)(=O)c2ccc(N3CCC(F)(F)CC3)nc2)CC1` [Example 86, N-Benzyl-1-((6-(4,4-difluoropiperidin-1-yl)pyridin-3-yl)sulfonyl)-N-methylpiperidin-4-amine], the Ki on human σ1 receptor and at human σ2/TMEM97 receptor was under 100 nM in each case.

For the molecule `CN(Cc1ccccc1)C1CCN(S(=O)(=O)c2ccc(N3CCC4(CCCO4)CC3)nc2)CC1` [Example 87, 1-((6-(1-Oxa-8-azaspiro[4.5]decan-8-yl)pyridin-3-yl)sulfonyl)-N-benzyl-N-methylpiperidin-4-amine], the Ki was over 1000 nM on human σ1 receptor and under 100 nM at human σ2/TMEM97 receptor.

Consider `CC(C)(C)CCN1CCC2(CCCN(S(=O)(=O)c3ccc(N4CCOCC4)nc3)C2)CC1` [Example 88, 4-(5-((9-(3,3-Dimethylbutyl)-2,9-diazaspiro[5.5]undecan-2-yl)sulfonyl)pyridin-2-yl)morpholine], for which the Ki at human σ1 receptor and at human σ2/TMEM97 receptor was under 100 nM throughout.

As to `CN(CCC(C)(C)C)[C@H]1CC[C@H](NS(=O)(=O)c2ccc(N3CCOCC3)nc2)CC1` [Example 89, N-((1r,4r)-4-((3,3-Dimethylbutyl)(methyl)amino)cyclo-hexyl)-6-morpholinopyridine-3-sulfonamide], the Ki at human σ1 receptor is 500 to 1000 nM; at human σ2/TMEM97 receptor, under 100 nM.

As for `CC(C)OCCN1CCC2(CC1)CCN(S(=O)(=O)c1ccc(C(F)(F)F)nc1)CC2` [Example 90, 3-(2-Isopropoxyethyl)-9-((6-(trifluoromethyl)pyridin-3-yl)sulfonyl)-3,9-diazaspiro[5.5]undecane], the values for the Ki on human σ1 receptor and at human σ2/TMEM97 receptor were 100 to 500 nM and under 100 nM, respectively.

For the molecule `CC(C)CN1CCC2(CC1)CCN(S(=O)(=O)c1ccc(C(F)(F)F)nc1)CC2` [Example 91, 3-Isobutyl-9-((6-(trifluoromethyl)pyridin-3-yl)sulfonyl)-3,9-diazaspiro[5.5]undecane], the Ki is 500 to 1000 nM at human σ1 receptor and under 100 nM at human σ2/TMEM97 receptor.

Take `CC(C)(C)CCN1CCC2(CCCN(S(=O)(=O)c3ccc(C(F)(F)F)nc3)C2)CC1` [Example 92, 9-(3,3-Dimethylbutyl)-2-((6-(trifluoromethyl)pyridin-3-yl)sulfonyl)-2,9-diazaspiro[5.5]undecane]: the Ki at human σ1 receptor and at human σ2/TMEM97 receptor was under 100 nM throughout.

Consider `CC(C)CCN1CCC2(CC1)CCN(S(=O)(=O)c1ccc(C(F)(F)F)nc1)CC2` [Example 93, 3-Isopentyl-9-((6-(trifluoromethyl)pyridin-3-yl)sulfonyl)-3,9-diazaspiro[5.5]undecane], for which the Ki at human σ1 receptor and on human σ2/TMEM97 receptor was under 100 nM each time.

As for `CNc1ccc(S(=O)(=O)N2CCCC3(CCN(CCC(C)(C)C)CC3)C2)cn1` [Example 94, 5-((9-(3,3-Dimethylbutyl)-2,9-diazaspiro[5.5]undecan-2-yl)sulfonyl)-N-methylpyridin-2-amine], the figures for the Ki at human σ1 receptor and on human σ2/TMEM97 receptor were 100 to 500 nM and under 100 nM, respectively.

For the molecule `CC(C)(C)CCN1CCC2(CCCN(S(=O)(=O)c3ccc(N4CCC5(CCOC5)CC4)nc3)C2)CC1` [Example 95, 8-(5-((9-(3,3-Dimethylbutyl)-2,9-diazaspiro[5.5]undecan-2-yl)sulfonyl)pyridin-2-yl)-2-oxa-8-azaspiro[4.5]decane], the Ki at human σ1 receptor and on human σ2/TMEM97 receptor was under 100 nM throughout.

`CC(C)(C)CCN1CCC2(CCCN(S(=O)(=O)c3ccc(N4CCC(F)(F)CC4)nc3)C2)CC1` [Example 96, 2-((6-(4,4-Difluoropiperidin-1-yl)pyridin-3-yl)sulfonyl)-9-(3,3-dimethylbutyl)-2,9-diazaspiro[5.5]undecane]: the Ki on human σ1 receptor and at human σ2/TMEM97 receptor was under 100 nM each time.

`CN(C)c1ccc(S(=O)(=O)N2CCCC3(CCN(CCC(C)(C)C)CC3)C2)cn1` [Example 97, 5-((9-(3,3-Dimethylbutyl)-2,9-diazaspiro[5.5]undecan-2-yl)sulfonyl)-N,N-dimethylpyridin-2-amine]: the Ki on human σ1 receptor and at human σ2/TMEM97 receptor was under 100 nM throughout.

For the molecule `CC(C)(C)CCN1CCC2(CCCN(S(=O)(=O)c3ccc(N4CCC5(CCCO5)CC4)nc3)C2)CC1` [Example 98, 8-(5-((9-(3,3-Dimethylbutyl)-2,9-diazaspiro[5.5]undecan-2-yl)sulfonyl)pyridin-2-yl)-1-oxa-8-azaspiro[4.5]decane], the Ki on human σ1 receptor and on human σ2/TMEM97 receptor was under 100 nM each time.

Take `CC(C)(C)CN1CCC2(CC1)CCN(S(=O)(=O)c1ccc(N3CCC(F)(F)CC3)nc1)CC2` [Example 99, 3-((6-(4,4-Difluoropiperidin-1-yl)pyridin-3-yl)sulfonyl)-9-neopentyl-3,9-diazaspiro[5.5]undecane]: the Ki at human σ1 receptor is 100 to 500 nM; at human σ2/TMEM97 receptor, under 100 nM.

On to `CN(CC(C)(C)C)C1CCN(S(=O)(=O)c2ccc(N3CCC(F)(F)CC3)nc2)CC1` [Example 100, 1-((6-(4,4-Difluoropiperidin-1-yl)pyridin-3-yl)sulfonyl)-N-methyl-N-neopentylpiperidin-4-amine], for which the Ki on human σ1 receptor and at human σ2/TMEM97 receptor was under 100 nM throughout.

Regarding `O=S(=O)(c1ccc(N2CCC(F)(F)CC2)nc1)N1CCCC2(CCN(CC3CCOCC3)CC2)C1` [Example 101, 2-((6-(4,4-Difluoropiperidin-1-yl)pyridin-3-yl)sulfonyl)-9-((tetrahydro-2H-pyran-4-yl)methyl)-2,9-diazaspiro[5.5]undecane], the Ki at human σ1 receptor and on human σ2/TMEM97 receptor was under 100 nM each time.

Regarding `CC(=O)N(C)c1ccc(S(=O)(=O)N2CCCC3(CCN(CCC(C)(C)C)CC3)C2)cn1` [Example 102, N-(5-((9-(3,3-Dimethylbutyl)-2,9-diazaspiro[5.5]undecan-2-yl)sulfonyl)pyridin-2-yl)-N-methylacetamide], the Ki on human σ1 receptor was 100 to 500 nM; on human σ2/TMEM97 receptor it was under 100 nM.

For `CC(=O)N(C)c1ccc(S(=O)(=O)N2CCC3(CCN(CCC(C)(C)C)CC3)CC2)cn1` [Example 103, N-(5-((9-(3,3-Dimethylbutyl)-3,9-diazaspiro[5.5]undecan-3-yl)sulfonyl)pyridin-2-yl)-N-methylacetamide], the inhibition constant Ki at human σ1 receptor was 100 to 500 nM; at human σ2/TMEM97 receptor, under 100 nM.

With `CCC(=O)N(C)c1ccc(S(=O)(=O)N2CCCC3(CCN(CCC(C)(C)C)CC3)C2)cn1` [Example 104, N-(5-((9-(3,3-Dimethylbutyl)-2,9-diazaspiro[5.5]undecan-2-yl)sulfonyl)pyridin-2-yl)-N-methylpropionamide], the Ki at human σ1 receptor was 100 to 500 nM; at human σ2/TMEM97 receptor, under 100 nM.

Take `CCC(=O)N(C)c1ccc(S(=O)(=O)N2CCC3(CCN(CCC(C)(C)C)CC3)CC2)cn1` [Example 105, N-(5-((9-(3,3-Dimethylbutyl)-3,9-diazaspiro[5.5]undecan-3-yl)sulfonyl)pyridin-2-yl)-N-methylpropionamide]: the Ki on human σ1 receptor is 100 to 500 nM; on human σ2/TMEM97 receptor it was under 100 nM.

With `CCC(=O)Nc1ccc(S(=O)(=O)N2CCCC3(CCN(CCC(C)(C)C)CC3)C2)cn1` [Example 106, N-(5-((9-(3,3-Dimethylbutyl)-2,9-diazaspiro[5.5]undecan-2-yl)sulfonyl)pyridin-2-yl)propionamide], the Ki on human σ1 receptor and on human σ2/TMEM97 receptor was under 100 nM throughout.

`CC(=O)Nc1ccc(S(=O)(=O)N2CCCC3(CCN(CCC(C)(C)C)CC3)C2)cn1` [Example 107, N-(5-((9-(3,3-Dimethylbutyl)-2,9-diazaspiro[5.5]undecan-2-yl)sulfonyl)pyridin-2-yl)acetamide]: the Ki on human σ1 receptor is 100 to 500 nM; on human σ2/TMEM97 receptor, under 100 nM.

Consider `Cc1ccc(S(=O)(=O)N2CCCC3(CCN(CCC(C)(C)C)CC3)C2)cn1` [Example 108, 9-(3,3-Dimethylbutyl)-2-((6-methylpyridin-3-yl)sulfonyl)-2,9-diazaspiro[5.5]undecane], for which the Ki on human σ1 receptor and on human σ2/TMEM97 receptor was under 100 nM each time.

Consider `CCc1ccc(S(=O)(=O)N2CCC3(CCN(CCC(C)(C)C)CC3)CC2)cn1` [Example 109, 3-(3,3-Dimethylbutyl)-9-((6-ethylpyridin-3-yl)sulfonyl)-3,9-diazaspiro[5.5]undecane], for which the Ki at human σ1 receptor and on human σ2/TMEM97 receptor was under 100 nM throughout.

Take `Cc1ccc(S(=O)(=O)N2CCC3(CCN(CCC(C)(C)C)CC3)CC2)cn1` [Example 110, 3-(3,3-Dimethylbutyl)-9-((6-methylpyridin-3-yl)sulfonyl)-3,9-diazaspiro[5.5]undecane]: the Ki at human σ1 receptor and at human σ2/TMEM97 receptor was under 100 nM each time.

Regarding `CCc1ccc(S(=O)(=O)N2CCCC3(CCN(CCC(C)(C)C)CC3)C2)cn1` [Example 111, 9-(3,3-Dimethylbutyl)-2-((6-ethylpyridin-3-yl)sulfonyl)-2,9-diazaspiro[5.5]undecane], the Ki on human σ1 receptor and on human σ2/TMEM97 receptor was under 100 nM in each case.

As for `CC(C)(C)CCN1CCC2(CCCN(S(=O)(=O)c3ccc(-c4ccncc4)nc3)C2)CC1` [Example 112, 2-([2,4′-Bipyridin]-5-ylsulfonyl)-9-(3,3-dimethylbutyl)-2,9-diazaspiro[5.5]undecane], the Ki on human σ1 receptor and on human σ2/TMEM97 receptor was under 100 nM in each case.

For `CC(C)(C)CCN1CCC2(CC1)CCN(S(=O)(=O)c1ccc(-c3ccncc3)nc1)CC2` [Example 113, 3-([2,4′-Bipyridin]-5-ylsulfonyl)-9-(3,3-dimethylbutyl)-3,9-diazaspiro[5.5]undecane], the Ki at human σ1 receptor is 100 to 500 nM; on human σ2/TMEM97 receptor, under 100 nM.
